ChEMBL document CHEMBL6114982, “Structural optimization and characterization of highly potent and selective STAT3 inhibitors for the treatment of triple negative breast cancer” (Eur J Med Chem, 2025)
Calls of active or inactive are those of the source. No cut-off for these calls is given here.

How the values were obtained:
[1] = target: Tyrosine-protein kinase JAK2 (Homo sapiens) (UniProt O60674); test: Inhibition of JAK2 (unknown origin) at upto 10 uM
[2] = Toxicity in female BALB/c nude mouse assessed as effect on spleen at 10 to 20 mg/kg, iv measured after 30 days by H and E staining based analysis; assay type: organism-based; settings: in vivo, 720 h, dose 10-20 mg/kg, time 30 day
MDA-MB-231 [3] = test: Antitumor activity against human MDA-MB-231 cells xenografted in female nude BALB/c mouse model assessed as tumor growth inhibition at 20 mg/kg, ip administered every other day for 30 days relative to control; assay type: functional; settings: MDA-MB-231, 720 h, time 30 day, read-out: TGI
MDA-MB-231 [4] = test: Inhibition of colony formation in human MDA-MB-231 cells measured after 14 days by crystal violet staining based analysis; assay type: functional, cell-based; settings: dose 0.1-0.5 µM, time 14.0 day
MDA-MB-231 [5] = test: Inhibition colony formation in human MDA-MB-231 cells harbouring STAT3 siRNA at 0.1 uM after 14 days by crystal violet staining based analysis; assay type: functional, cell-based; settings: time 14.0 day
MDA-MB-231 [6] = test: Induction of apoptosis in human MDA-MB-231 cells assessed as late apoptotic at 0.5 uM incubated for 48 hrs by Annexin V and PI staining based flow cytometry analysis (reference value: 2.71%); assay type: functional
BT-549 [7] = test: Downregulation of CD44 expression in human BT-549 cells by Western blot analysis; assay type: functional, cell-based
BT-549 [8] = test: Effect on STAT3 expression in human BT-549 cells at 0.1 microM measured after 8 to 48 hrs by Western blot analysis; assay type: functional, cell-based; settings: time 8-48 hrs
BT-549 [9] = test: Effect on JAK1 phosphorylation level in human BT-549 cells at 0.05 to 0.5 uM measured after 48 hrs by Western blot analysis; assay type: functional, cell-based; settings: dose 0.05-0.5 µM
BT-549 [10] = test: Downregulation of cyclin D1 level in human BT-549 cells measured after 48 hrs by Western blot analysis; assay type: functional, cell-based; settings: dose 0.05-0.5 µM
[11] = target: T1, Signal transducer and activator of transcription 3 (Homo sapiens, UniProt P40763); test: Inhibition of STAT3 phosphorylation at Tyr705 residue in human BT-549 cells measured after 8 to 48 hrs by Western blot analysis; assay type: cell-based; settings: dose 0.1 µM, time 8-48 hrs
T1 sequence (P40763 whole entry): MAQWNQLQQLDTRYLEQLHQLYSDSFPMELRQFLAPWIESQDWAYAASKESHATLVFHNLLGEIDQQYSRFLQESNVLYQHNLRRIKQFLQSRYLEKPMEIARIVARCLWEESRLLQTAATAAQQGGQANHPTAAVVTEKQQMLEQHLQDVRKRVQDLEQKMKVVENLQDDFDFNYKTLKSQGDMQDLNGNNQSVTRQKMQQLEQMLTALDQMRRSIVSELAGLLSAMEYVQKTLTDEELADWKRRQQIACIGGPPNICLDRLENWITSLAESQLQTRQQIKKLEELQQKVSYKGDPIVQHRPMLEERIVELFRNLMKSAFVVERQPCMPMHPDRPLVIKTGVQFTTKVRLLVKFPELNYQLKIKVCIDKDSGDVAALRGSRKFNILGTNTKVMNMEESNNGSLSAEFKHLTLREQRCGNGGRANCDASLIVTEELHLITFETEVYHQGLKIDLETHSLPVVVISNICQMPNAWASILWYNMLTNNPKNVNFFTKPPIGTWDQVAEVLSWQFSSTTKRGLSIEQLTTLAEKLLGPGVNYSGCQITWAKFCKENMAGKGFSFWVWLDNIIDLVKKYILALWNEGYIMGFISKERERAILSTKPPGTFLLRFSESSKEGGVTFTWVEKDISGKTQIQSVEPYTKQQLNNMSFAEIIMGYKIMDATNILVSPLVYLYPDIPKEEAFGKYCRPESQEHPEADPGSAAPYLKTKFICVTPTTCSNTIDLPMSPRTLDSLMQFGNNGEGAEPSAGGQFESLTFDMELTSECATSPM

[12] = target: Epidermal growth factor receptor (Homo sapiens) (UniProt P00533); test: Inhibition of EGFR (unknown origin) at upto 10 uM
Sequence of Epidermal growth factor receptor (Homo sapiens) (P00533 whole entry): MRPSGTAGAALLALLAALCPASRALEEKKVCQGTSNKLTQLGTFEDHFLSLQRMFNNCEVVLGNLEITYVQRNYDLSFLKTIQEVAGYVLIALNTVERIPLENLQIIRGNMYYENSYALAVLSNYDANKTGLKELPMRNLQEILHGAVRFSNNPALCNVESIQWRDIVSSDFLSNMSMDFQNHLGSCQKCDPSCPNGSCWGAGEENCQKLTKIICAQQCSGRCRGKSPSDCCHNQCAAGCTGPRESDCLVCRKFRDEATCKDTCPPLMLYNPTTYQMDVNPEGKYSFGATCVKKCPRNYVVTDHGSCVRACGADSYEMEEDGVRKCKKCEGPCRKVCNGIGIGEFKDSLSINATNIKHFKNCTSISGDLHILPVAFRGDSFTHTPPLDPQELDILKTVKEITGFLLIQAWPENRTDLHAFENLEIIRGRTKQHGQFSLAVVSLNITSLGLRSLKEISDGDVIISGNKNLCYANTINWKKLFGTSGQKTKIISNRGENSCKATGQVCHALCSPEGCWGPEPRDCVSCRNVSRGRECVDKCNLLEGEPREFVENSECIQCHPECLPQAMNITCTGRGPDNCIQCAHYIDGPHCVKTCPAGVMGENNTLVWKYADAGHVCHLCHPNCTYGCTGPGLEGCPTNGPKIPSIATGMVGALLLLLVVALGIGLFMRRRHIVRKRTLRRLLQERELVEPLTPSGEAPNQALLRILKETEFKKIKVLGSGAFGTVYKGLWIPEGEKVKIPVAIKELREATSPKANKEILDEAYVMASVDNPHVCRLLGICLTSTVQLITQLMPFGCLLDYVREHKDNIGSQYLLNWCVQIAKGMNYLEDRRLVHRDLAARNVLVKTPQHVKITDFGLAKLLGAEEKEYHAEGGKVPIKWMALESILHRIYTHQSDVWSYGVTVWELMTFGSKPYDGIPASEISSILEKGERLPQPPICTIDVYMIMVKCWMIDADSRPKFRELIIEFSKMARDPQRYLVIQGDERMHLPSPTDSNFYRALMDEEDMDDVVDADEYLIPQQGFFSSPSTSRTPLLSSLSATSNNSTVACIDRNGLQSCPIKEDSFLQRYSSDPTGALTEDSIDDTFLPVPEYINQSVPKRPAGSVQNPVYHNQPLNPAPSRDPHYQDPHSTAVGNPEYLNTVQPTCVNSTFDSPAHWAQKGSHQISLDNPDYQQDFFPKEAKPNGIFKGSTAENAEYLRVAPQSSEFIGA

MDA-MB-231 [13] = test: Effect on ERK12 phosphorylation level in human MDA-MB-231 cells at 0.05 to 0.5 uM measured after 48 hrs by Western blot analysis; assay type: functional, cell-based; settings: dose 0.05-0.5 µM
[14] = target: T1, Signal transducer and activator of transcription 3; test: Inhibition of STAT3 phosphorylation at Tyr705 residue in human MDA-MB-231 cells at 0.1 uM by Western blot analysis; assay type: cell-based; settings: time 8-48 hrs
MDA-MB-231 [15] = test: Induction of apoptosis in human MDA-MB-231 cells incubated for 48 hrs by Annexin V and PI staining based flow cytometry analysis; assay type: functional, cell-based; settings: dose 0.05-0.5 µM
[16] = target: T2, Tyrosine-protein kinase JAK3 (Homo sapiens) (UniProt P52333); test: Inhibition of JAK3 (unknown origin) at upto 10 uM
T2 sequence (whole entry): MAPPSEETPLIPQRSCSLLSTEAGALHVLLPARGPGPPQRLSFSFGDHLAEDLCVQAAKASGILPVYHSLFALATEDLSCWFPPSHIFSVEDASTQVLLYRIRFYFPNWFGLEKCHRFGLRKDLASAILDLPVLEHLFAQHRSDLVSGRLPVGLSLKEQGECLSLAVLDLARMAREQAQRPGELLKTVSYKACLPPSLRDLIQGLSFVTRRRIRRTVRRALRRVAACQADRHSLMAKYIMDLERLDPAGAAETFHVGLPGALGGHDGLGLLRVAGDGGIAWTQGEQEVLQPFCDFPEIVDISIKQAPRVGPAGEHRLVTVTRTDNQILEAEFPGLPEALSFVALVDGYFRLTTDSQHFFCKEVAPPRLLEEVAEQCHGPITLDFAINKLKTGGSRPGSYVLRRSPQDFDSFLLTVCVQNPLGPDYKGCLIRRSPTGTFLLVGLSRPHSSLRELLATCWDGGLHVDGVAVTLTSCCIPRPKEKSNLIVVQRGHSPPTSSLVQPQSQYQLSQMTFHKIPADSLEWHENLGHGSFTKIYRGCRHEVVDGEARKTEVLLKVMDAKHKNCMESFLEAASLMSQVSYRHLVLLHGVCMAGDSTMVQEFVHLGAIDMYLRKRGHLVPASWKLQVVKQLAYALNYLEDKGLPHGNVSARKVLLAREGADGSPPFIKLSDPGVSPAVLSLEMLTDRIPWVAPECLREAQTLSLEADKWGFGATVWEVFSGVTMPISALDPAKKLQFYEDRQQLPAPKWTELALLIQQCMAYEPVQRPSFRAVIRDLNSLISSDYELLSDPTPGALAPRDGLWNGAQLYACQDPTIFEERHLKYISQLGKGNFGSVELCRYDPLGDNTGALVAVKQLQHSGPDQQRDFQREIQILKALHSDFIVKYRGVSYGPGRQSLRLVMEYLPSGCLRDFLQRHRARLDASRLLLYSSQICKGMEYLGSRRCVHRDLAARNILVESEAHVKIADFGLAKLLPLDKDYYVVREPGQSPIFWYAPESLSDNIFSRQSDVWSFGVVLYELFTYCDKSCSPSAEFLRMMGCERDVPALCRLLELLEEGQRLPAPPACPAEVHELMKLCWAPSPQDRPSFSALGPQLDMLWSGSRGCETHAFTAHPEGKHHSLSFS

BT-549 [17] = test: Downregulation of STAT3 phosphorylation level in human BT-549 cells preincubated for 48 hrs followed by IL-6 addition and measured after 2 hrs by Western blot analysis; assay type: functional, cell-based; settings: dose 0.05-0.5 µM, time 50.0 hrs
BT-549 [18] = test: Downregulation of Bcl-2 level in human BT-549 cells measured after 48 hrs by Western blot analysis; assay type: functional, cell-based; settings: dose 0.05-0.5 µM
[19] = Toxicity in female BALB/c nude mouse assessed as effect on liver at 10 to 20 mg/kg, iv measured after 30 days by H and E staining based analysis; assay type: organism-based; settings: in vivo, 720 h, dose 10-20 mg/kg, time 30 day
[20] = Toxicity in female BALB/c nude mouse assessed as effect on heart at 10 to 20 mg/kg, iv measured after 30 days by H and E staining based analysis; assay type: organism-based; settings: in vivo, 720 h, dose 10-20 mg/kg, time 30 day
MDA-MB-231 [21] = test: Downregulation of MMP2 expression level in human MDA-MB-231 cells by Western blot analysis; assay type: functional, cell-based
MDA-MB-231 [22] = test: Induction of apoptosis in human MDA-MB-231 cells assessed as late apoptotic at 0.05 uM incubated for 48 hrs by Annexin V and PI staining based flow cytometry analysis (reference value: 2.71%); assay type: functional
BT-549 [23] = test: Effect on STAT5 phosphorylation level in human BT-549 cells at 0.05 to 0.5 uM measured after 48 hrs by Western blot analysis; assay type: functional, cell-based; settings: dose 0.05-0.5 µM
MDA-MB-231 [24] = test: Effect on Akt phosphorylation level in human MDA-MB-231 cells at 0.05 to 0.5 uM measured after 48 hrs by Western blot analysis; assay type: functional, cell-based; settings: dose 0.05-0.5 µM
MDA-MB-231 [25] = test: Downregulation of Bcl-2 level in human MDA-MB-231 cells measured after 48 hrs by Western blot analysis; assay type: functional, cell-based; settings: dose 0.05-0.5 µM
[26] = target: Tyrosine-protein kinase JAK1 (Homo sapiens) (UniProt P23458); test: Inhibition of JAK1 (unknown origin) at upto 10 uM
Sequence of Tyrosine-protein kinase JAK1 (Homo sapiens) (P23458 whole entry): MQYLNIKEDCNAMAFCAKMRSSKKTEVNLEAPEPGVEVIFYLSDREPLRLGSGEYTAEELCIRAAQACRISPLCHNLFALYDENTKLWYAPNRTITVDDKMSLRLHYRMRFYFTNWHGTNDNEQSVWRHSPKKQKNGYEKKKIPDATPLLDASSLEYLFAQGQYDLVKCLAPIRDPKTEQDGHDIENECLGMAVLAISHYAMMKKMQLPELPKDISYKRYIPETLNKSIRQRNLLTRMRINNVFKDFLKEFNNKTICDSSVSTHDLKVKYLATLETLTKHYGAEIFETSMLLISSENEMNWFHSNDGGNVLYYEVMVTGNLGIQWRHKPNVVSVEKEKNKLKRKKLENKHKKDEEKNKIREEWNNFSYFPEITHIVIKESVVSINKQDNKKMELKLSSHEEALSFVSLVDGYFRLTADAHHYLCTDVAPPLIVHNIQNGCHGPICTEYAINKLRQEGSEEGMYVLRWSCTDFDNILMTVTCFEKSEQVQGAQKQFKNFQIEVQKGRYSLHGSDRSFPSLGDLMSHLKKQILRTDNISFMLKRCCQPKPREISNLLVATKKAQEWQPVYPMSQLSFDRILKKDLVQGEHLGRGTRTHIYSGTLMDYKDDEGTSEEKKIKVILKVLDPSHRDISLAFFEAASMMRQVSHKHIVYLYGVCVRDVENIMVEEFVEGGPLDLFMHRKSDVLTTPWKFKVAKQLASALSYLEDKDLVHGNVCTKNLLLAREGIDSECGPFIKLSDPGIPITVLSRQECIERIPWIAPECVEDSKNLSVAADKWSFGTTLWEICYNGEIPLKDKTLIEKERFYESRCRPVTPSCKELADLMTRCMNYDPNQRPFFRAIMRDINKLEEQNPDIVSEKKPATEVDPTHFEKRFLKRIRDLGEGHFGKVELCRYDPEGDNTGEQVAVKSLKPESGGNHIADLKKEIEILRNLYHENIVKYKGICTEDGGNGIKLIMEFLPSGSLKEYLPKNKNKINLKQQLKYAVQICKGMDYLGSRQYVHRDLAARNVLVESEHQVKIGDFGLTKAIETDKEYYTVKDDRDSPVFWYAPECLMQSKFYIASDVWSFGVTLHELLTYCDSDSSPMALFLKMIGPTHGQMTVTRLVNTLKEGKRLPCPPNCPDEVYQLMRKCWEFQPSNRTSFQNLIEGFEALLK

Sequence of Tyrosine-protein kinase JAK2 (Homo sapiens) (O60674 whole entry): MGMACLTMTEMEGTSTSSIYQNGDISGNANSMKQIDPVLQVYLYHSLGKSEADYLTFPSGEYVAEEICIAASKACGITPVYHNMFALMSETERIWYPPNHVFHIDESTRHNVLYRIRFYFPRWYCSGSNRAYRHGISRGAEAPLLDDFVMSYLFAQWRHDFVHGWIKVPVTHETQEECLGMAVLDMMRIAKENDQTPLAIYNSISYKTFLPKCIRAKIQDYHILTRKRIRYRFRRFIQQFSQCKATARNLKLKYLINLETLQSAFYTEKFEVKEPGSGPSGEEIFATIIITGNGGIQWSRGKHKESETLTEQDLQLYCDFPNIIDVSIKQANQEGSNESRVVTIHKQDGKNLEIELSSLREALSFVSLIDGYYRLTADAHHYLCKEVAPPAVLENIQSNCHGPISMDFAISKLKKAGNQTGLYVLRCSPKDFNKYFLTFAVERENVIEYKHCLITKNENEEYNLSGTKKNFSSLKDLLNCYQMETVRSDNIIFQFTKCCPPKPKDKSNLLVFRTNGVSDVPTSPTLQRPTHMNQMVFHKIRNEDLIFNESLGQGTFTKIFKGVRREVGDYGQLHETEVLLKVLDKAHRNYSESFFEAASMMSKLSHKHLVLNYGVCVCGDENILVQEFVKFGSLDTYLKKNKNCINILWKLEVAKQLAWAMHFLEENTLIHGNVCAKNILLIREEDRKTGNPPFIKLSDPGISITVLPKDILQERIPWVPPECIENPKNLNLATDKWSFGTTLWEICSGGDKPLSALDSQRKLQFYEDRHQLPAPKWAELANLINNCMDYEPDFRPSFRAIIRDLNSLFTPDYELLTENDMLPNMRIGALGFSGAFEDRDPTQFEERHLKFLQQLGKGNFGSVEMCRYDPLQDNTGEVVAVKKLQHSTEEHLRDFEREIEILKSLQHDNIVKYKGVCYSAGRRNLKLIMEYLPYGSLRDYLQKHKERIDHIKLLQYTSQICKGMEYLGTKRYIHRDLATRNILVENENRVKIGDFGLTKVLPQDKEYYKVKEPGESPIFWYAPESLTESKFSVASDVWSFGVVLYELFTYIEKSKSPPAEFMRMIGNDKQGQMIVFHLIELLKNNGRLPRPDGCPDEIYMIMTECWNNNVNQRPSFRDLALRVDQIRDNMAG

In the case of COc1cccc(C(=O)Nc2sc3c(c2C#N)CCN(C(=O)Nc2ccccc2OC)C3)c1, the inhibition [1] is reported as “Active; Compound Showed Little Inhibitory Effect”, the Activity [2] is reported as “Non-toxic” and the inhibition in vivo at 20 mg/kg (MDA-MB-231 [3]) is reported as 58%. For the same compound, the inhibition (MDA-MB-231 [4]) was “Dose-dependent-effect”, the inhibition (MDA-MB-231 [5]) was “inactive” and the Activity (MDA-MB-231 [6]) was 19.18%. The Activity (BT-549 [7]) was “Active”, the Activity (BT-549 [8]) was “Active; Compound Showed Little Impact On Stat3 Expression” and the Activity (BT-549 [9]) was “inactive”. The Activity (BT-549 [10]) was “Dose-dependent-effect”, the inhibition [11] was “Dose-dependent-effect” and the inhibition [12] was “Active; Compound Showed Little Inhibitory Effect”. The Activity (MDA-MB-231 [13]) was “inactive”, the inhibition [14] was “Time-dependent-effect” and the Activity (MDA-MB-231 [15]) was “Dose-dependent-effect”. The inhibition [16] was “Active; Compound Showed Little Inhibitory Effect”, the Activity (BT-549 [17]) was “Dose-dependent-effect” and the Activity (BT-549 [18]) was “Dose-dependent-effect”. The Activity [19] was “Non-toxic”, the Activity [20] was “Non-toxic” and the Activity (MDA-MB-231 [21]) was “Active”. The Activity (MDA-MB-231 [22]) was 12.78%, the Activity (BT-549 [23]) was “inactive” and the Activity (MDA-MB-231 [24]) was “inactive”. For the same compound, the Activity (MDA-MB-231 [25]) was “Dose-dependent-effect” and the inhibition [26] was “Active; Compound Showed Little Inhibitory Effect”.
